Data set [1] can be described thus: Blood biochemical indexes of liver and kidney functions, infected and treated mice. The note with it: infected mice, therapeutic dose (omeprazole 138.2, amoxicillin 28.5, clarithromycin 14.3, zinc linolenate 24 mg/kg), intragastric, serum. How it is done:
(2) Animal administration: the experimental group is intragastrically administered. The group with omeprazole is administered with omeprazole first, and then administered with other drugs 30 min later. After the mice are administered with the drugs, the mice fast for 4 hours. Calculated according to an average of 20 g/mouse of the weight of mice, the dosage is: omeprazole 138.2 mg/kg, amoxicillin 28.5 mg/kg, clarithromycin 14.3 mg/kg, and zinc linolenate 24 mg/kg, once a day for 5 consecutive times. The negative control group is administered with a PBS solution with the same dosage and number of times as above.
(3) Efficacy test: the mice in the infection group are weighed and the average weight is calculated on the 2 days after the drug is stopped. Blood is taken from the eyeballs and the mice are sacrificed by cervical dislocation. Stomach tissue is taken, and the isolation, culture and identification of Helicobacter pylori are the same as in 2.3.3 (3) and (4).
(4) Efficacy test: the mice in the infection group are weighed 3 days after the drug is stopped, and the average weight is calculated. Blood is taken from the eyeballs, and the mice are sacrificed by cervical dislocation. Stomach, kidney, liver and spleen tissues are taken, pathologically sectioned and HE stained, and serum is tested for liver and kidney functions.

Data set [2] relates to Helicobacter pylori HP162. Nature of the data set: MIC by broth microdilution method. The note with it: HP162 (Levofloxacin resistant), 72 h. It counts as cell-based. The arrangement: key: +: Bacterial growth; −: No bacterial growth. How it is done:
2.1 Detection of minimum inhibitory concentration (MIC, 100 µL system) of zinc linolenate for Helicobacter pylori by a broth microdilution method
(§1) (1) Zinc linolenate (2 mg/mL) is prepared.
(3) Bacterial solution preparation: the Helicobacter pylori grown in a log phase on a solid plate is taken to make a bacterial suspension with a BHI culture medium, the absorbance (OD600) is adjusted to 0.3 (1×10^8 CFU/mL), and the bacterial suspension is diluted 10 times to 1×10^7 CFU/mL for later use.
(4) Inoculation of bacterial solution: 10 μL of bacterial solution above is taken and added to the 1-8th wells (the concentration of the bacterial solution per well is about 1.0×10^6 CFU/mL). Culture is performed for 72 h to judge the result. The drug concentrations of the 1-7th wells are 64, 32, 16, 8, 4, 2, and 1 μg/mL, respectively.
(§2) The experiment only makes sense when the bacteria obviously grow in the 8th well, i.e. the positive control well (without antibiotics). When a single drift occurs in the microdilution method, the maximum drug concentration that inhibits bacterial growth should be recorded. If there are multiple drifts, the results should not be reported and the experiment should be repeated. The experiment is repeated 3 times for each drug.
On the technique in general: Dilution methods test growth across graded concentrations, often in twofold steps.

Data set [3] concerns 25 kinds of non-Helicobacter pylori bacteria, including Staphylococcus aureus. Nature of the data set: MIC by microdilution method, 25 kinds of non-Helicobacter pylori bacteria together. The data set is classed as cell-based. The conditions noted are these: all 25 kinds of non-Helicobacter pylori bacteria, 72 h. How it is done: 2.2 Detection of minimum inhibitory concentration (MIC, 100 µL system) of zinc linolenate for non-Helicobacter pylori bacteria by microdilution method
as §1
(3) Bacterial solution preparation: the non-Helicobacter pylori grown in a log phase on a solid plate is taken to make a bacterial suspension with a BHI culture medium, the absorbance (OD600) is adjusted to 0.3 (1×10^8 CFU/mL), and the bacterial suspension is diluted 100 times to 1×10^6 CFU/mL for use.
(4) Inoculation of bacterial solution: 10 μL of bacterial solution above is taken and added to the 1-8th wells (the concentration of the bacterial solution per well is about 1.0×10^5 CFU/mL). Culture is performed for 72 h to judge the result. The drug concentrations of the first-seventh wells are 128, 64, 32, 16, 8, 4, and 2 μg/mL, respectively.
as §2

The structures appear in SMILES notation.

On to `CC/C=C\C/C=C\C/C=C\CCCCCCCC(=O)[O-].CC/C=C\C/C=C\C/C=C\CCCCCCCC(=O)[O-].[Zn+2]` [zinc linolenate], for which the Alanine aminotransferase in data set [1] is recorded as 50.00 U/L. The compound also returned an Aspartate aminotransferase in data set [1] of 192.33 U/L. The compound also gave a Blood urea nitrogen in data set [1] of 14.97 mmol/L. In data set [1], this compound gave a Creatinine of 18.33 µmol/L. For the same compound, the Bacterial growth entry is on record as “+” in data set [2] (zinc linolenate 1 μg/ml); “−” in data set [2] (zinc linolenate 2 μg/ml); “−” in data set [2] (zinc linolenate 4 μg/ml); “−” in data set [2] (zinc linolenate 8 μg/ml); “−” in data set [2] (zinc linolenate 16 μg/ml); “−” in data set [2] (zinc linolenate 32 μg/ml). In addition, in data set [2] (zinc linolenate 64 μg/ml), the Bacterial growth result was “−”. Further, the MIC result in data set [3] is “greater than or equal to 128 μg/mL”.

(Values after US11203563B2, “Preparation of zinc linolenate, and application of zinc linolenate in preparing anti-helicobacter pylori drug” (NANJING MEDICAL UNIVERSITY, priority 2018, dated 2021).)
